From ChEMBL document CHEMBL1201862, “PubChem BioAssay data set” (2004)
Activity calls are given as the source filed them. Cut-off read from the data, not from the text of the source, for most assays here: actives have a measured EC50 and inactives only a lower limit.

Experiments:
[1] = Luminescence Cell-Based Dose Response to Identify Activators of 5'UTR Stem-Loop Driven Prion Protein mRNA Translation in H4-C Neuroglioblastoma Cells. [Related pubchem assays: 1829 (Project Summary), 1814 (Primary HTS)]; assay type: functional
[2] = Luminescence Cell-Based Dose Response HTS to Identify Activators of Luciferase Translation or Activity in H4 […] Cells. [Related pubchem assays: 1829 (Project Summary), 1814 (Primary HTS)]; assay type: functional
H4 = assay: Luminescence Cell-Based Dose Response HTS to Identify Activators of 5'UTR Stem-Loop Driven Prion Protein mRNA Translation in H4 Neuroglioblastoma Cells. [Related pubchem assays: 1829 (Project Summary), 1814 (Primary HTS)]; assay type: functional; conditions: Homo sapiens
[3] = Luminescence Cell-Based Dose Response to Identify Activators of Luciferase Translation or Activity in H4-C Neuroglioblastoma Cells. [Related pubchem assays: 1829 (Project Summary), 1814 (Primary HTS)]; assay type: functional
[4] = Luminescence Cell-Based Dose Confirmation to Identify Activators of 5'UTR Stem-Loop Driven Alpha-Synuclein mRNA Translation in H4 Neuroglioblastoma Cells. [Related pubchem assays: 1829 (Project Summary), 1814 (Primary HTS)]; assay type: functional
[5] = biological target: T1, Long-chain-fatty-acid--AMP ligase FadD28 (Mycobacterium tuberculosis, UniProt P9WQ59); assay: Fluorescence polarization aasay to screen for inhibitors that compete for the binding of FadD28 to a bisubstrate Measured in Biochemical System Using Plate Reader - 2147-01_Inhibitor_Dose_CherryPick_Activity.; assay type: functional, Mycobacterium tuberculosis H37Rv
T1 sequence (P9WQ59 whole entry): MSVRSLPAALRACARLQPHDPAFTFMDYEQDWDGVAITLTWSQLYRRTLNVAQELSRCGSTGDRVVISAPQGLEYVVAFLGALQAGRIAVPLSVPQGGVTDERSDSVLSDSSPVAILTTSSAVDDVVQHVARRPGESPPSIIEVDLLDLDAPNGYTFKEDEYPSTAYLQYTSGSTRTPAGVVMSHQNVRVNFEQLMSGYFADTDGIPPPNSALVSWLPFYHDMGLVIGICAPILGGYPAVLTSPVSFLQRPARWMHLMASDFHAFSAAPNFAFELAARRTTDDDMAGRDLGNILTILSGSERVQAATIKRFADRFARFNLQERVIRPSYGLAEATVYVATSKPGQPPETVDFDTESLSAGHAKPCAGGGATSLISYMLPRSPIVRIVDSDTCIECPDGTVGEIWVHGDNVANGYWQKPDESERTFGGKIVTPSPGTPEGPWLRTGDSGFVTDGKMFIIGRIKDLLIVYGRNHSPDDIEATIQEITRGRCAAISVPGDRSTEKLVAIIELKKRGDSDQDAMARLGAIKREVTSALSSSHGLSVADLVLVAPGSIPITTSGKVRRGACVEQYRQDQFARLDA

[6] = Luminescence Cell-Based Dose Confirmation HTS to Identify Inhibitors of Polyadenylation.; assay type: functional
[7] = HPDE-C7 pancreatic duct cell viability loss – fluorescence, HTS (AID 430); assay type: functional, cell-based; conditions: Homo sapiens
[8] = viability loss of HPDE-C7K cells – cell-based, fluorescence, HTS, primary screen (AID 431); assay type: functional; conditions: Homo sapiens

Question: With `O=C(O)c1ccc(N/N=C/C(Br)=C/c2ccccc2)cc1` as the molecule, how does the EC50 [1] read?
Answer: Its EC50 is 0.316 µM (active).

Question: What about the EC50 [2] of the same molecule?
Answer: Its EC50 is < 0.1 µM (active).

Question: And the EC50 (H4)?
Answer: The EC50 was 7.2 µM (active).

Question: And the EC50 [3]?
Answer: The EC50 was 0.368 µM (active).

Question: And the EC50 [4]?
Answer: The EC50 was 0.425 µM (active).

Question: And the AC50 [5]?
Answer: The AC50 was > 100 µM (inactive).

Question: For `C/C(=N\NC(=O)COc1ccc(C)cc1[N+](=O)[O-])c1cccs1`, which EC50 [6] is on record?
Answer: Its EC50 is > 120 µM (not active).

Question: For `Cc1cc(C(=O)Nc2sc3c(c2C#N)CCC(C)C3)cs1` (centres undefined), which EC50 [7] is on record?
Answer: Its EC50 is > 20 µM (not active).

Question: And the EC50 [8]?
Answer: The EC50 was > 20 µM (not active).
